# Data taken from PubChem BioAssay (NCI).
#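 96-well plates; 48 h exposure; 5 concentrations. Endpoints by linear interpolation between flanking doses. Not reached: highest tested concentration assigned. GI50 = concentration required for 50% inhibition of growth. Definition used: TGI = concentration required for complete inhibition of growth.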
# How the values were obtained:
# Experiment in all cases: NCI tumour cell line growth inhibition, 48 h
# NCI-H522 lung = tested on: NCI-H522 lung
# CAKI-1 renal = tested on: CAKI-1 renal
# MALME-3M melanoma = tested on: MALME-3M melanoma
# UACC-62 melanoma = tested on: UACC-62 melanoma
# A498 renal = tested on: A498 renal
# COLO 205 colon = tested on: COLO 205 colon
# SN12C renal = tested on: SN12C renal
# NCI-H23 lung = tested on: NCI-H23 lung
# RXF 393 renal = tested on: RXF 393 renal
# HS 578T breast = tested on: HS 578T breast
SMILES,TGI (NCI-H522 lung) [µM],TGI (CAKI-1 renal) [µM],TGI (MALME-3M melanoma) [µM],TGI (UACC-62 melanoma) [µM],TGI (A498 renal) [µM],TGI (COLO 205 colon) [µM],TGI (SN12C renal) [µM],TGI (NCI-H23 lung) [µM],TGI (RXF 393 renal) [µM],GI50 (UACC-62 melanoma) [µM],GI50 (COLO 205 colon) [µM],GI50 (HS 578T breast) [µM],TGI (HS 578T breast) [µM],GI50 (SN12C renal) [µM],GI50 (NCI-H23 lung) [µM],GI50 (RXF 393 renal) [µM],GI50 (NCI-H522 lung) [µM],GI50 (CAKI-1 renal) [µM],GI50 (MALME-3M melanoma) [µM],GI50 (A498 renal) [µM]
N#Cc1ccc(C=NC23CC4CC(CC(C4)C2)C3)cc1,> 100,> 100,> 100,> 100,> 100,> 100,> 100,> 100,> 100,–,–,–,–,–,–,–,–,–,–,–
O=C(CC1SC(=Nc2ccccc2Cl)NC1=O)Nc1ccc(Cl)cc1Cl (stereo unspecified),–,–,> 100,> 100,–,> 100,> 100,> 100,> 100,–,–,–,–,–,–,–,–,–,–,–
N#CC(C#N)c1ccc(C(=O)N2CCC[C@H]2CO)cc1,> 100,> 100,> 100,> 100,–,> 100,> 100,> 100,> 100,–,–,–,–,–,–,–,–,–,–,–
O=S(=O)(/C=C/C(=C/c1ccccc1)S(=O)(=O)c1ccccc1)c1ccccc1,2.85,2.88,3.3,3.85,–,4.31,3.43,3.56,3.19,–,–,–,–,–,–,–,–,–,–,–
O=c1[nH]cc(F)c(=O)n1C1OC(CO)C(O)C1O (stereo unspecified),> 100,> 100,> 100,–,–,> 100,> 100,> 100,> 100,–,–,–,–,–,–,–,–,–,–,–
C/C(=C\c1cnc(C)s1)[C@@H]1C[C@@H]2O[C@@H]2CCC[C@H](C)[C@H](O)[C@@H](C)C(=O)C(C)(C)[C@@H](O)CC(=O)O1,–,–,–,> 100,–,0.0304,> 100,> 100,> 100,< 0.01,< 0.01,0.0117,> 100,< 0.01,< 0.01,< 0.01,–,–,–,–
COC(=O)c1cc2c(cc1Cl)SC1=NN(C)C(N(C)C)N1S2(=O)=O (stereo unspecified),> 100,> 100,> 100,> 100,> 100,> 100,> 100,> 100,–,> 100,> 100,> 100,> 100,> 100,> 100,–,> 100,> 100,> 100,> 100
O=S(=O)(c1cccc(N=C=S)c1)c1cccc(N=C=S)c1,32.8,–,34.9,36.2,–,38.1,37.7,32.9,30,–,–,–,–,–,–,–,–,–,–,–
CCN(CC)CCCCCCNc1cc(OC)cc2cccnc12,4.76,26.6,3.93,5.16,–,3.85,5,30.3,15.7,2.29,1.94,12.3,42.3,2.29,13.3,4.26,2.17,12.4,2.03,–
NC(=O)c1csc(C2OC(COP(=O)(O)CP(=O)(O)OCC3OC(n4cnc5c(N)ncnc54)C(O)C3O)C(O)C2O)n1 (stereo unspecified),> 100,> 100,> 100,> 100,> 100,> 100,> 100,> 100,–,–,–,–,–,–,–,–,–,–,–,–
